What all share (format): cell-based
One experiment has as its target T1, human M1 receptor (Homo sapiens, UniProt P11229).
T1 sequence (P11229 1-460): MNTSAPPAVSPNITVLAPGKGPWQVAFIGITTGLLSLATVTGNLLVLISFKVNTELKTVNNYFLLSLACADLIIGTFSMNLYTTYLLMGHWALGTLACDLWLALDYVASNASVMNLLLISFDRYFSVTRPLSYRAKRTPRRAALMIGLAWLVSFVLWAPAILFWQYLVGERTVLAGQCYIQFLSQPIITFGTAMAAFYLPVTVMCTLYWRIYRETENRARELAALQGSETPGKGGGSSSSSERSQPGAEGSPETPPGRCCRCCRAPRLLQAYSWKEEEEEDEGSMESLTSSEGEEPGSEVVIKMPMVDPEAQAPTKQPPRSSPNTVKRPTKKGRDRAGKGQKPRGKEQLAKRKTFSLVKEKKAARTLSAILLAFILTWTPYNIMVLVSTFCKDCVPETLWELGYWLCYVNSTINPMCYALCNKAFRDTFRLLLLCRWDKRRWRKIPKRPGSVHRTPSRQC
The experiment in a line: In vitro functional assay of muscarinic acetylcholine receptor activity (aequorin calcium flux, reversal of EC80 acetylcholine response). Particulars: CHO-K1 cells stably expressing human M1 receptor with aequorin; acetylcholine at EC80; calcium flux (luminescence); read-out: M1 IC50. In a few lines:
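CHO-K1 cells expressing human M1 and aequorin, loaded with 5 μM coelenterazine for 4 h, preincubated with compound 30 min at room temperature, then challenged with EC80 acetylcholine.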

For the next experiment, the target named is T2, human M2 receptor (Homo sapiens, UniProt P08172).
T2 sequence (P08172 1-466): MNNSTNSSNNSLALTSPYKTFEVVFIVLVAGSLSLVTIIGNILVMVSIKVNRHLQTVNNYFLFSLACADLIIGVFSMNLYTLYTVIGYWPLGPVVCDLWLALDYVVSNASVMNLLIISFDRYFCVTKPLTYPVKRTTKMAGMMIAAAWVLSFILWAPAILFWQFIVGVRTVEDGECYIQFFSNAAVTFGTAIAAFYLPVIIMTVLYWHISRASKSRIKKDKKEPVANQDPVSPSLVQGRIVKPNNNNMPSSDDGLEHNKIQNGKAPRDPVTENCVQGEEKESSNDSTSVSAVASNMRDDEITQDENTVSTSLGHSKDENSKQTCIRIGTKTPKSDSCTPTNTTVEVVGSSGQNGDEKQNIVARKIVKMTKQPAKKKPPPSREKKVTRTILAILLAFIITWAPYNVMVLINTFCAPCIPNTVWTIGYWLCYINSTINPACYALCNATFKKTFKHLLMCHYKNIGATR
The experiment is described as follows: In vitro functional assay, reversal of EC80 acetylcholine response in CHO-K1 aequorin cells. How it is done: (§1) CHO-K1 cells stably expressing human M1 receptor with aequorin (Perkin Elmer) were grown in F12 media (Gibco) containing 10% FBS (ATCC), 0.4 mg/mL geneticin (Sigma-Aldrich) and 0.25 mg/mL Zeocin (Invitrogen). Cells were grown as per the manufacturer's protocol. For compound testing, cells were grown to confluency and detached gently with Accutase (Sigma-Aldrich) followed by centrifugation for 5 min at 150× g. Cells were then re-suspended in assay buffer (i.e. DMEM/F-12 HEPES without phenol red (Invitrogen) with 0.1% BSA (Sigma-Aldrich)) at a density of 5×10^6 cells/ml. Under sterile conditions, 5 μM coelenterazine (Invitrogen) was added to the cells, mixed, then incubated at room temperature protected from light, with gentle agitation, for 4 h.
(§2) Primary compound plates were prepared in 100% DMSO in opaque 96-well plates (VWR) and serially diluted in half log increments. Secondary compound plates were prepared at 3× concentration in assay buffer. Compounds were added to white, clear bottom tissue culture treated 96-well plates (Fisher Scientific). Coelenterazine-loaded cells were then added at 5×10^5 cells/well.
(§3) Compounds and cells were incubated at room temperature for 30 min in the dark. Acetylcholine at the EC80 concentration was added and calcium flux measured using a FlexStation 3 (Molecular Devices). Sigmoidal dose-response curves were generated by measuring luminescence over 40 sec and calculating the area under the curve. Dose response curves and IC50 values were generated using Prism (GraphPad). Compounds were tested at a final concentration range of 100 μM to […] in 0.1% DMSO.
(§4) CHO-K1 cells stably expressing human M2, M3 and M4 receptors, respectively, with aequonin (Perkin Elmer) were used to assess a test compound's ability to dose-dependently reverse the EC80 acetylcholine response. The IC50 of the compounds was calculated from the dose response curve.

The next experiment concerns the target human M3 receptor (Homo sapiens, UniProt P20309). Described as above. How it is done: as §1, §2, §3, §4
The next experiment addresses T3, human M4 receptor (Homo sapiens, UniProt P08173).
T3 sequence (P08173 1-479): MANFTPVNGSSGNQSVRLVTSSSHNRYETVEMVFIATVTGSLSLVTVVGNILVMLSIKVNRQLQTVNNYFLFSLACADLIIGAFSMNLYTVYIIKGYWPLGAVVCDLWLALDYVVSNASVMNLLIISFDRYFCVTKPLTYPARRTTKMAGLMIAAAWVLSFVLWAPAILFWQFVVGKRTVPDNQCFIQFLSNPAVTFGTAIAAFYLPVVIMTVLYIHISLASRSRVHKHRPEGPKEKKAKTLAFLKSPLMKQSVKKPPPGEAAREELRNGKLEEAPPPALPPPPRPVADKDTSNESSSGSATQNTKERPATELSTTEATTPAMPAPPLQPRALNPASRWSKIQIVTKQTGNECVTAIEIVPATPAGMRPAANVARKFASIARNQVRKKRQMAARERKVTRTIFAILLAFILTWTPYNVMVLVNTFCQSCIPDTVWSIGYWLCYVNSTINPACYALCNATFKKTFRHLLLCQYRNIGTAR
The description is as above. How it is done:
as §1, §2, §3, §4

human M3 receptor, sequence (P20309 whole entry): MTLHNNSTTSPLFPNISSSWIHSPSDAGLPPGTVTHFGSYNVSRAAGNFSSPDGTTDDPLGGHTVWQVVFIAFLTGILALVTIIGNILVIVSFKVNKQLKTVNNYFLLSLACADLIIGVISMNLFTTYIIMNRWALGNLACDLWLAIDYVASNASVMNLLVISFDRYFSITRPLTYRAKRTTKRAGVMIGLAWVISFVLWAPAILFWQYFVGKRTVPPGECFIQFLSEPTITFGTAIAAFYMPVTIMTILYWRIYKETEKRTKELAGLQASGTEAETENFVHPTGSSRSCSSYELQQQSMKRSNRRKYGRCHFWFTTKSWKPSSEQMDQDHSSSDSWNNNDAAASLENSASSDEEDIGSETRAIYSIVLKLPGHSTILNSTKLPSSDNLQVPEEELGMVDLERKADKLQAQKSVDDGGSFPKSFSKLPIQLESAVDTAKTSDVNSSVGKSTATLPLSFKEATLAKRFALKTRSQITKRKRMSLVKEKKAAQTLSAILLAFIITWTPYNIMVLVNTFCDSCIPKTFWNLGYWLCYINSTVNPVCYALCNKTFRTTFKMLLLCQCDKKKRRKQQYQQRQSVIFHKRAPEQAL

Take `COc1cc(C2(NCC(=O)N3CC4CCC(C3)N4c3ccc(C#N)cn3)CCC2)ccn1` [Example 118, 6-(3-((1-(2-methoxypyridin-4-yl)cyclobutyl)glycyl)-3,8-diazabicyclo[3.2.1]octan-8-yl)nicotinonitrile]: the IC50 at human M1 receptor lay in the range of 10 to 100 nM; at human M2 receptor it was 1000 to 10000 nM; at human M3 receptor, 1000 to 10000 nM; on human M4 receptor, 100 to 1000 nM.

Take `N#Cc1ccc(N2C3CCC2CN(C(=O)CCNC2(c4ccc(F)c(F)c4)CC2)C3)nc1` [Example 1, 6-(3-(3-((1-(3,4-difluorophenyl)cyclopropyl)amino)propanoyl)-3,8-diazabicyclo[3.2.1]octan-8-yl)nicotinonitrile]: the IC50 at human M1 receptor is less than 10 nM; on human M2 receptor, 100 to 1000 nM; on human M3 receptor, 1000 to 10000 nM; on human M4 receptor it was 100 to 1000 nM.

In the case of `COc1cc(C(F)(F)CCC(=O)N2CC3CCC(C2)N3c2ccc(C#N)cn2)ccn1` [Example 138, 6-(3-(4,4-difluoro-4-(2-methoxypyridin-4-yl)butanoyl)-3,8-diazabicyclo[3.2.1]octan-8-yl)nicotinonitrile], the IC50 was less than 10 nM at human M1 receptor, 1000 to 10000 nM on human M2 receptor, 100 to 1000 nM on human M3 receptor and 100 to 1000 nM at human M4 receptor.

Usually IC50 stands for the midpoint of a concentration-inhibition curve.

Values taken from US12565501B2, “Muscarinic acetylcholine M1 receptor antagonists” (Contineum Therapeutics, Inc., priority 2019, dated 2026).
